Experimental data as given in publication PMC7700572, “Synthesis, Kinetic and Conformational Studies of 2-Substituted-5-(β-D-glucopyranosyl)-pyrimidin-4-ones as Potential Inhibitors of Glycogen Phosphorylase” (Molecules, 2020).

target: T1, rabbit muscle glycogen phosphorylase (RMGP) (Oryctolagus cuniculus, UniProt P00489); experiment: enzyme kinetics in the direction of glycogen synthesis, RMGP isolated from rabbit skeletal muscle, […] AMP; format: biochemical
T1 construct: gene PYGM
T1 sequence (P00489 2-843): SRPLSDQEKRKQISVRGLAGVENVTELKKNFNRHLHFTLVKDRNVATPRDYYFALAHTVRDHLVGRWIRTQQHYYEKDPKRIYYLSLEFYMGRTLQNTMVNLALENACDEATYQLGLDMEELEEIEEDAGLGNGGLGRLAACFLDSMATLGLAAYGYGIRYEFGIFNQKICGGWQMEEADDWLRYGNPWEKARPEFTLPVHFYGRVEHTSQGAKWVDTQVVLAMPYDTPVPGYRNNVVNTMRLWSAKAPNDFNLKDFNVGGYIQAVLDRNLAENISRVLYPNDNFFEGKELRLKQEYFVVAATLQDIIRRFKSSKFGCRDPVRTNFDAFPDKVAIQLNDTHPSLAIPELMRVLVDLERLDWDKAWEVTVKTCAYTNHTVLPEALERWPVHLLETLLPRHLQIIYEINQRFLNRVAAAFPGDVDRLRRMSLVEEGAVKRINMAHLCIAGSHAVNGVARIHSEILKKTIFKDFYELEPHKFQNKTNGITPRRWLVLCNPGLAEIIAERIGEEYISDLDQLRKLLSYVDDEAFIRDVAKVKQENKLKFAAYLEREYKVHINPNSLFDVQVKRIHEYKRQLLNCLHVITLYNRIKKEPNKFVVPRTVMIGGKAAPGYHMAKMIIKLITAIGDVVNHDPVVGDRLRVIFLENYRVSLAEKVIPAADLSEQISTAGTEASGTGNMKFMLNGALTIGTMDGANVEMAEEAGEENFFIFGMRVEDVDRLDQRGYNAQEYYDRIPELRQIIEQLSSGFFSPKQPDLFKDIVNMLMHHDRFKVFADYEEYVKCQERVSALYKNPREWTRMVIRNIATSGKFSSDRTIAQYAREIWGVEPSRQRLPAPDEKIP

IC50 [µM] | Compound
396 ± 10.8 | Nc1ncc([C@@H]2O[C@H](CO)[C@@H](O)[C@H](O)[C@H]2O)c(=O)[nH]1 [compound 5, 2-Amino-5-(β-D-glucopyranosyl)pyrimidin-4(3H)-one]
88.5 ± 4.3 | O=c1[nH]cc([C@@H]2O[C@H](CO)[C@@H](O)[C@H](O)[C@H]2O)c(=O)[nH]1 [compound 4, 5-(β-D-Glucopyranosyl)pyrimidin-2,4-dione]
5.4 ± 0.5 | O=c1[nH]c(Nc2ccc3[nH]c4ccccc4c(=O)c3c2)ncc1[C@@H]1O[C@H](CO)[C@@H](O)[C@H](O)[C@H]1O [compound 6, 2-[(Acridin-9(10H)-on-2-yl)amino]-5-(β-D-glucopyranosyl)pyrimidin-4(3H)-one]
